From ChEMBL document CHEMBL1201862, “PubChem BioAssay data set” (2004)
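Where inhibition never reached the appropriate level, the endpoint shown equals the highest concentration tested. Otherwise, values were interpolated linearly from a five-concentration, 48-hour dose response in 96-well plates. GI50 = concentration required for 50% inhibition of growth.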 The source made the active and inactive calls. Rule as the data show it: active = GI50 up to about 1.1 µM and inactive = higher.

Assays:
Experiment in all cases: NCI tumour cell line growth inhibition, 48 h
HL-60 = tested on: HL-60
SK-OV-3 = tested on: SK-OV-3
ACHN = tested on: ACHN
SK-MEL-2 = tested on: SK-MEL-2
SNB-78 = tested on: SNB-78
HCC 2998 = tested on: HCC 2998
CAKI-1 = tested on: CAKI-1
KM12 = tested on: KM12
SNB-19 = tested on: SNB-19
M19-MEL = tested on: M19-MEL
DMS-114 = tested on: DMS-114
K562 = tested on: K562
A498 = tested on: A498
LOX IMVI = tested on: LOX IMVI
NCI-H522 = tested on: NCI-H522
SN12C = tested on: SN12C
UO-31 = tested on: UO-31
HT-29 = tested on: HT-29
NCI-H226 = tested on: NCI-H226
Malme-3M = tested on: Malme-3M
TK-10 = tested on: TK-10
U-251 = tested on: U-251
DLD-1 = tested on: DLD-1
SF-539 = tested on: SF-539
NCI-H460 = tested on: NCI-H460
SR = tested on: SR
OVCAR-8 = tested on: OVCAR-8
KM-20L2 = tested on: KM-20L2
HOP-18 = tested on: HOP-18
DMS-273 = tested on: DMS-273
SK-MEL-28 = tested on: SK-MEL-28
786-0 = tested on: 786-0
SNB-75 = tested on: SNB-75
NCI-H23 = tested on: NCI-H23
HOP-62 = tested on: HOP-62
SF-295 = tested on: SF-295
HCT-116 = tested on: HCT-116
SF-268 = tested on: SF-268
IGROV-1 = tested on: IGROV-1
HCT-15 = tested on: HCT-15
M14 = tested on: M14
OVCAR-4 = tested on: OVCAR-4
CCRF-CEM = tested on: CCRF-CEM
A549 = tested on: A549
UACC-62 = tested on: UACC-62
COLO 205 = tested on: COLO 205
OVCAR-3 = tested on: OVCAR-3
SW-620 = tested on: SW-620
MOLT-4 = tested on: MOLT-4
RXF 631 = tested on: RXF 631
RPMI-8226 = tested on: RPMI-8226
HOP-92 = tested on: HOP-92
UACC-257 = tested on: UACC-257
RXF 393 = tested on: RXF 393
SK-MEL-5 = tested on: SK-MEL-5
LXFL 529 = tested on: LXFL 529
XF498 = tested on: XF498
EKVX = tested on: EKVX
OVCAR-5 = tested on: OVCAR-5

CC(/C=C/C(=O)c1sc(-n2nc(-c3ccccc3)cc2-c2ccccc2)nc1C)=C\c1ccccc1
GI50 (HL-60): 36.3 µM (inactive)
GI50 (SK-OV-3): 38.4 µM (inactive)
GI50 (ACHN): 25.6 µM (inactive)
GI50 (SK-MEL-2): 34.3 µM (inactive)
GI50 (SNB-78): > 10 µM (inactive)
GI50 (HCC 2998): 23.7 µM (inactive)
GI50 (CAKI-1): 20.7 µM (inactive)
GI50 (KM12): 23.8 µM (inactive)
GI50 (SNB-19): 64.3 µM (inactive)
GI50 (M19-MEL): 75 µM (inactive)
GI50 (DMS-114): 16.9 µM (inactive)
GI50 (K562): 19.9 µM (inactive)
GI50 (A498): > 10 µM (inactive)
GI50 (LOX IMVI): 71.9 µM (inactive)
GI50 (NCI-H522): 19 µM (inactive)
GI50 (SN12C): 40.3 µM (inactive)
GI50 (UO-31): 24 µM (inactive)
GI50 (HT-29): > 10 µM (inactive)
GI50 (NCI-H226): > 10 µM (inactive)
GI50 (Malme-3M): 35.8 µM (inactive)
GI50 (TK-10): > 10 µM (inactive)
GI50 (U-251): 65.2 µM (inactive)
GI50 (DLD-1): 29.9 µM (inactive)
GI50 (SF-539): 52.1 µM (inactive)
GI50 (NCI-H460): 52.7 µM (inactive)
GI50 (SR): 27.2 µM (inactive)
GI50 (OVCAR-8): 17.5 µM (inactive)
GI50 (KM-20L2): 20.7 µM (inactive)
GI50 (HOP-18): > 10 µM (inactive)
GI50 (DMS-273): > 10 µM (inactive)
GI50 (SK-MEL-28): > 10 µM (inactive)
GI50 (786-0): 96.4 µM (inactive)
GI50 (SNB-75): 2.02 µM (inactive)
GI50 (NCI-H23): 8.3 µM (inactive)
GI50 (HOP-62): > 10 µM (inactive)
GI50 (SF-295): > 10 µM (inactive)
GI50 (HCT-116): 62.5 µM (inactive)
GI50 (SF-268): 72.9 µM (inactive)
GI50 (IGROV-1): 98.4 µM (inactive)
GI50 (HCT-15): 19.2 µM
GI50 (M14): > 10 µM (inactive)
GI50 (OVCAR-4): 7.43 µM (inactive)
GI50 (CCRF-CEM): 27.7 µM (inactive)
GI50 (A549): 38.8 µM (inactive)
GI50 (UACC-62): 40.5 µM (inactive)
GI50 (COLO 205): > 10 µM (inactive)
GI50 (OVCAR-3): 26.7 µM (inactive)
GI50 (SW-620): > 10 µM (inactive)
GI50 (MOLT-4): 9.06 µM (inactive)
GI50 (RXF 631): 65.9 µM (inactive)
GI50 (RPMI-8226): 19.3 µM (inactive)
GI50 (HOP-92): 8.69 µM (inactive)
GI50 (UACC-257): 47.1 µM (inactive)
GI50 (RXF 393): > 10 µM (inactive)
GI50 (SK-MEL-5): 15.5 µM (inactive)
GI50 (LXFL 529): 38.4 µM (inactive)
GI50 (XF498): > 10 µM (inactive)
GI50 (EKVX): 5.05 µM (inactive)
GI50 (OVCAR-5): > 10 µM (inactive)

CCN(CC)c1ccc2c(c1)Nc1cc(=C(C#N)C#N)c3ccccc3c1=N2
GI50 (HL-60): > 100 µM (inactive)
GI50 (SK-OV-3): > 100 µM (inactive)
GI50 (ACHN): > 100 µM (inactive)
GI50 (SK-MEL-2): > 100 µM (inactive)
GI50 (SNB-78): > 100 µM (inactive)
GI50 (HCC 2998): > 100 µM (inactive)
GI50 (CAKI-1): > 100 µM (inactive)
GI50 (KM12): > 100 µM (inactive)
GI50 (SNB-19): > 100 µM (inactive)
GI50 (M19-MEL): > 100 µM (inactive)
GI50 (DMS-114): > 100 µM (inactive)
GI50 (K562): > 100 µM (inactive)
GI50 (A498): > 100 µM (inactive)
GI50 (LOX IMVI): 53.5 µM (inactive)
GI50 (NCI-H522): > 100 µM (inactive)
GI50 (SN12C): > 100 µM (inactive)
GI50 (UO-31): > 100 µM (inactive)
GI50 (HT-29): > 100 µM (inactive)
GI50 (NCI-H226): > 100 µM (inactive)
GI50 (Malme-3M): > 100 µM (inactive)
GI50 (TK-10): > 100 µM (inactive)
GI50 (U-251): > 100 µM (inactive)
GI50 (DLD-1): > 100 µM (inactive)
GI50 (SF-539): > 100 µM (inactive)
GI50 (NCI-H460): 95.3 µM (inactive)
GI50 (SR): > 100 µM (inactive)
GI50 (OVCAR-8): 61 µM (inactive)
GI50 (KM-20L2): > 100 µM (inactive)
GI50 (HOP-18): > 100 µM (inactive)
GI50 (DMS-273): > 100 µM (inactive)
GI50 (SK-MEL-28): > 100 µM (inactive)
GI50 (786-0): > 100 µM (inactive)
GI50 (SNB-75): > 100 µM (inactive)
GI50 (NCI-H23): > 100 µM (inactive)
GI50 (HOP-62): > 100 µM (inactive)
GI50 (SF-295): > 100 µM (inactive)
GI50 (HCT-116): 82.6 µM (inactive)
GI50 (SF-268): > 100 µM (inactive)
GI50 (IGROV-1): > 100 µM (inactive)
GI50 (M14): > 100 µM (inactive)
GI50 (OVCAR-4): > 100 µM (inactive)
GI50 (A549): > 100 µM (inactive)
GI50 (UACC-62): > 100 µM (inactive)
GI50 (COLO 205): > 100 µM (inactive)
GI50 (OVCAR-3): > 100 µM (inactive)
GI50 (SW-620): 59 µM (inactive)
GI50 (MOLT-4): > 100 µM (inactive)
GI50 (RXF 631): > 100 µM (inactive)
GI50 (RPMI-8226): > 100 µM (inactive)
GI50 (HOP-92): > 100 µM (inactive)
GI50 (UACC-257): > 100 µM (inactive)
GI50 (RXF 393): > 100 µM (inactive)
GI50 (SK-MEL-5): > 100 µM (inactive)
GI50 (LXFL 529): > 100 µM (inactive)
GI50 (XF498): > 100 µM (inactive)
GI50 (EKVX): > 100 µM (inactive)
GI50 (OVCAR-5): > 100 µM (inactive)

CCC1C(=O)OCc2c1cc1n(c2=O)Cc2ccccc2-1 (stereo unspecified)
GI50 (HL-60): > 100 µM (inactive)
GI50 (ACHN): > 100 µM (inactive)
GI50 (SK-MEL-2): > 100 µM (inactive)
GI50 (SNB-78): > 100 µM (inactive)
GI50 (HCC 2998): > 100 µM (inactive)
GI50 (CAKI-1): 34.2 µM (inactive)
GI50 (KM12): > 100 µM (inactive)
GI50 (SNB-19): > 100 µM (inactive)
GI50 (M19-MEL): > 100 µM (inactive)
GI50 (DMS-114): > 100 µM (inactive)
GI50 (K562): > 100 µM (inactive)
GI50 (A498): > 100 µM (inactive)
GI50 (LOX IMVI): > 100 µM (inactive)
GI50 (SN12C): > 100 µM (inactive)
GI50 (UO-31): > 100 µM (inactive)
GI50 (HT-29): > 100 µM (inactive)
GI50 (NCI-H226): > 100 µM (inactive)
GI50 (Malme-3M): > 100 µM (inactive)
GI50 (TK-10): > 100 µM (inactive)
GI50 (DLD-1): > 100 µM (inactive)
GI50 (SF-539): > 100 µM (inactive)
GI50 (NCI-H460): > 100 µM (inactive)
GI50 (SR): > 100 µM (inactive)
GI50 (OVCAR-8): > 100 µM (inactive)
GI50 (KM-20L2): > 100 µM (inactive)
GI50 (HOP-18): > 100 µM (inactive)
GI50 (DMS-273): > 100 µM (inactive)
GI50 (SK-MEL-28): > 100 µM (inactive)
GI50 (786-0): > 100 µM (inactive)
GI50 (SNB-75): > 100 µM (inactive)
GI50 (NCI-H23): > 100 µM (inactive)
GI50 (HOP-62): > 100 µM (inactive)
GI50 (SF-295): > 100 µM (inactive)
GI50 (HCT-116): > 100 µM (inactive)
GI50 (SF-268): > 100 µM (inactive)
GI50 (IGROV-1): > 100 µM (inactive)
GI50 (HCT-15): > 100 µM
GI50 (M14): > 100 µM (inactive)
GI50 (OVCAR-4): > 100 µM (inactive)
GI50 (CCRF-CEM): > 100 µM (inactive)
GI50 (A549): > 100 µM (inactive)
GI50 (UACC-62): > 100 µM (inactive)
GI50 (OVCAR-3): > 100 µM (inactive)
GI50 (SW-620): > 100 µM (inactive)
GI50 (MOLT-4): > 100 µM (inactive)
GI50 (RXF 631): > 100 µM (inactive)
GI50 (RPMI-8226): > 100 µM (inactive)
GI50 (HOP-92): > 100 µM (inactive)
GI50 (UACC-257): > 100 µM (inactive)
GI50 (RXF 393): > 100 µM (inactive)
GI50 (SK-MEL-5): > 100 µM (inactive)
GI50 (LXFL 529): > 100 µM (inactive)
GI50 (XF498): > 100 µM (inactive)
GI50 (EKVX): > 100 µM (inactive)
GI50 (OVCAR-5): > 100 µM (inactive)
